Measured values: US20200239530A1, “COMPOUNDS AND METHODS OF MODULATING PROTEIN DEGRADATION” (Vividion Therapeutics, Inc., priority 2017, published 2020)

What was measured:
Assay in all cases: Cysteine liganding, probe competition
Assay type in all cases: binding
[1] = biological target: T1, TNFAIP3 Tumor necrosis factor alpha-induced protein 3 (Homo sapiens, UniProt P21580)
T1 construct: Cells were resuspended in cold PBS on ice and sonicated with a probe sonicator to achieve lysis; endogenous in cells
T1 sequence (P21580 1-790): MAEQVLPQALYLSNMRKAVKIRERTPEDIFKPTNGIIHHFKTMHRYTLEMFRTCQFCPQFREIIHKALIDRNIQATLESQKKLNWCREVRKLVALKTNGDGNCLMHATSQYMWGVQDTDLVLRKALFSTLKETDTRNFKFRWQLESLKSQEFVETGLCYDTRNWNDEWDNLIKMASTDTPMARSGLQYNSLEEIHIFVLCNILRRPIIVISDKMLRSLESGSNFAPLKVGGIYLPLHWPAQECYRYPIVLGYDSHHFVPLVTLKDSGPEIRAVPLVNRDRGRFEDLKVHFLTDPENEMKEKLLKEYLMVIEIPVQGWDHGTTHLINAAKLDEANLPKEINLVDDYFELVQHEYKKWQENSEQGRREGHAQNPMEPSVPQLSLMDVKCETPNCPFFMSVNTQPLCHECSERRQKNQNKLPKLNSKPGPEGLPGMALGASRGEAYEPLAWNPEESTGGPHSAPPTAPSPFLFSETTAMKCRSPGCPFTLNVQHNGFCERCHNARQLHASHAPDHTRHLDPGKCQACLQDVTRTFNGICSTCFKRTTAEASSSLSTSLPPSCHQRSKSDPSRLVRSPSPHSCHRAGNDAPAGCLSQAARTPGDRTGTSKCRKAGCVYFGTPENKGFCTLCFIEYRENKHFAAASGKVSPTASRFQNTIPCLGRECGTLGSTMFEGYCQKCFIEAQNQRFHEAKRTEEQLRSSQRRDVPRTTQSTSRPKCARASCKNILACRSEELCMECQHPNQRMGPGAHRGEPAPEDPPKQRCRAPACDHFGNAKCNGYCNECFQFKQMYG
In short: (§1)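 Probe competition in native proteome: 5 mg/ml lysate, compound 1 hr 25° C, then desthiobiotin iodoacetamide (10 mM stock) 1 hr 25° C; acetone ppt, urea/DTT reduction, iodoacetamide alkylation, trypsin, streptavidin pull-down.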

[2] = biological target: T2, CKB Creatine kinase B-type (Homo sapiens, UniProt P12277)
T2 construct: 200 μL of lysate containing 5 mg/ml proteome was treated with 2 μL of 100× compound stock; endogenous in cells
In short: as §1

[3] = biological target: T3, CKMT1B Creatine kinase U-type, mitochondrial (Homo sapiens, UniProt P12532); details: for Liganded: CKMT1B Res# 316, uniprot P12532
T3 construct: 200 μL of lysate containing 5 mg/ml proteome was treated with 2 μL of 100× compound stock; endogenous in cells
In short: as §1

[4] = biological target: T4, AGPAT6 Glycerol-3-phosphate acyltransferase 4 (Homo sapiens, UniProt Q86UL3); details: for Liganded: AGPAT6 Res# 325, uniprot Q86UL3
T4 construct: Cells were resuspended in cold PBS on ice and sonicated with a probe sonicator to achieve lysis; endogenous in cells
T4 sequence (Q86UL3 38-456): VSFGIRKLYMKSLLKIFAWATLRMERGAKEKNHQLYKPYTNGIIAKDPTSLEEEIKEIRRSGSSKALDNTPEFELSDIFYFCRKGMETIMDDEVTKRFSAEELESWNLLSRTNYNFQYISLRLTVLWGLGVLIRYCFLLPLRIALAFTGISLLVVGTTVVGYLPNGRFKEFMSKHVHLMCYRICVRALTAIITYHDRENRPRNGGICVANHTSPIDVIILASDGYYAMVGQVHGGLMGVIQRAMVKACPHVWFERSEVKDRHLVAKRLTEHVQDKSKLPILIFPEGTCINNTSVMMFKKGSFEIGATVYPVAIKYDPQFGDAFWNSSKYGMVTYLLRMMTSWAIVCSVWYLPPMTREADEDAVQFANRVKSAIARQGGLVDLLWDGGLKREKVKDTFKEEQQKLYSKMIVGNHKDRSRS
In short: as §1

[5] = TNFAIP3 Res# 54, uniprot P21580

T2 sequence (P12277 whole entry): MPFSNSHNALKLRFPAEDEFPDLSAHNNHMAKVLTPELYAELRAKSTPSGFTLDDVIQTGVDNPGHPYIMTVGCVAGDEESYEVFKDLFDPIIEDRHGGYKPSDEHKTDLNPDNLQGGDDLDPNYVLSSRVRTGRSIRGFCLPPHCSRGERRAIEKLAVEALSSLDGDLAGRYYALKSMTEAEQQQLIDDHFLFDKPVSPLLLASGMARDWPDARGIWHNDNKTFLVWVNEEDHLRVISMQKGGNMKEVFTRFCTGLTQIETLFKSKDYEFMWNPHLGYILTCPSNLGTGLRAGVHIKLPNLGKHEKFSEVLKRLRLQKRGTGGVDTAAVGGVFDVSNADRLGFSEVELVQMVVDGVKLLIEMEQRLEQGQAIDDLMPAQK

Row | Structure (SMILES) | Liganded [1, 5] | 100 Max ([2]; uniprot P12277) | 100 ave ([2]; uniprot P12277) | 500 ave ([2]; uniprot P12277) | 500 Max ([2]; uniprot P12277, in % (unit assumed)) | Liganded [3] | 100 Max ([3]; uniprot P12532) | 100 ave ([3]; uniprot P12532) | 500 ave ([3]; uniprot P12532) | 500 Max ([3]; uniprot P12532, in % (unit assumed)) | Liganded [4] | 100 Max ([4]; uniprot Q86UL3) | 100 ave ([4]; uniprot Q86UL3) | 500 Max ([4]; uniprot Q86UL3) | 500 ave ([4]; uniprot Q86UL3) | Liganded ([1]; TNFAIP3 Res# 536, uniprot P21580) | Liganded ([1]; TNFAIP3 Res# 579, uniprot P21580) | Liganded ([2]; CKB Res# 283, uniprot P12277)
1 | O=C(CCl)Nc1cc(C(F)(F)F)cc(C(F)(F)F)c1 [KBO3] | YES | 23.24 | 15.155 | 71.73 | 71.73 | YES | 42.35 | 29.59 | 81.71 | 86.19 | YES | 66.91 | 65.705 | 85.19 | 85.19 |  |  | 
2 | COc1ccc2c(c1)CCCN2C(=O)CCl [KB02] | YES |  |  |  |  | YES |  |  |  |  | YES |  |  |  |  | YES | YES | YES
